Laboratory results from ChEMBL document CHEMBL1201862, “PubChem BioAssay data set” (2004).
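Values below derive from 48-hour exposures of cells grown in 96-well plates, with endpoints linearly interpolated between the two concentrations bracketing the appropriate inhibition level. Here, GI50 denotes the concentration required for 50% inhibition of growth.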 Active and inactive are the calls of the source. Cut-off read from the data, not from the text of the source: active = GI50 up to about 1.1 µM and inactive = higher.

Legend:
Experiment in all cases: DTP human tumour cell line panel, 48 h
HOP-92 = test system: HOP-92
OVCAR-3 = test system: OVCAR-3
Hs-578T = test system: Hs-578T
HCT-116 = test system: HCT-116
SK-MEL-28 = test system: SK-MEL-28
Malme-3M = test system: Malme-3M
UO-31 = test system: UO-31
A549 = test system: A549
HT-29 = test system: HT-29
EKVX = test system: EKVX
MOLT-4 = test system: MOLT-4
K562 = test system: K562
NCI/ADR-RES = test system: NCI/ADR-RES
786-0 = test system: 786-0
DU-145 = test system: DU-145
ACHN = test system: ACHN
MDA-N = test system: MDA-N
SK-MEL-2 = test system: SK-MEL-2
UACC-62 = test system: UACC-62

| SMILES | GI50 (HOP-92) | GI50 (OVCAR-3) | GI50 (Hs-578T) | GI50 (HCT-116) | GI50 (SK-MEL-28) | GI50 (Malme-3M) | GI50 (UO-31) | GI50 (A549) | GI50 (HT-29) | GI50 (EKVX) | GI50 (MOLT-4) | GI50 (K562) | GI50 (NCI/ADR-RES) | GI50 (786-0) | GI50 (DU-145) | GI50 (ACHN) | GI50 (MDA-N) | GI50 (SK-MEL-2) | GI50 (UACC-62) |
| --- | --- | --- | --- | --- | --- | --- | --- | --- | --- | --- | --- | --- | --- | --- | --- | --- | --- | --- | --- |
| Nc1nc(Cl)c(CO)c(NCC2(CO)CC(CCc3ccccc3)C2)n1 (stereo unspecified) | 24.3 µM (inactive) | 18.8 µM (inactive) | > 10 µM (inactive) | 0.979 µM (active) | 20.4 µM (inactive) | 14.2 µM (inactive) | 17.3 µM (inactive) | 18.6 µM (inactive) | 22.2 µM (inactive) | 19.2 µM (inactive) | 2.1 µM (inactive) | 1.37 µM (inactive) | 11.5 µM (inactive) | 31.8 µM (inactive) | 22.6 µM (inactive) | 24.4 µM (inactive) | > 100 µM (inactive) |  |  |
| CCN1C/C(=C\c2ccc(Cl)cc2)c2nc(N)c(C#N)c(-c3ccc(Cl)cc3)c2C1 |  | > 100 µM (inactive) | > 100 µM (inactive) | > 100 µM (inactive) | > 100 µM (inactive) | > 100 µM (inactive) | > 100 µM (inactive) | > 100 µM (inactive) | > 100 µM (inactive) | > 100 µM (inactive) | 67.9 µM (inactive) | > 100 µM (inactive) | > 100 µM (inactive) | > 100 µM (inactive) | > 100 µM (inactive) | > 100 µM (inactive) | > 100 µM (inactive) | > 100 µM (inactive) | > 100 µM (inactive) |
| OC1(c2ccc(-c3ccccc3)cc2)c2ccccc2C2=NCCN21 (stereo unspecified) | 50.4 µM (inactive) | 19 µM (inactive) | 22.4 µM (inactive) | 30.3 µM (inactive) | 21.7 µM (inactive) |  | 30.6 µM (inactive) | 84.9 µM (inactive) | 21.4 µM (inactive) |  | 27.1 µM (inactive) | 70.5 µM (inactive) | 29.2 µM (inactive) | 16 µM (inactive) | > 100 µM (inactive) | 20.6 µM (inactive) | > 100 µM (inactive) | 3.61 µM (inactive) | 20.4 µM (inactive) |
| c1cc2c3ccsc3c3sccc3c2s1 | > 100 µM (inactive) | > 100 µM (inactive) | 11.9 µM (inactive) | > 100 µM (inactive) | > 100 µM (inactive) |  | > 100 µM (inactive) | > 100 µM (inactive) | 99.5 µM (inactive) | > 100 µM (inactive) | 55.7 µM (inactive) | > 100 µM (inactive) | > 100 µM (inactive) | 95.9 µM (inactive) | > 100 µM (inactive) | > 100 µM (inactive) | > 100 µM (inactive) | 10.6 µM (inactive) | > 100 µM (inactive) |
| [N-]=[N+]=NCN1C(=O)C2C3C=CC(C2C1=O)C1C2C(=O)N(CN=[N+]=[N-])C(=O)C2C31 (stereo unspecified) | 12.5 µM (inactive) | > 100 µM (inactive) | > 100 µM (inactive) | > 100 µM (inactive) | > 100 µM (inactive) |  | > 100 µM (inactive) | > 100 µM (inactive) | > 100 µM (inactive) | > 100 µM (inactive) |  | > 100 µM (inactive) | > 100 µM (inactive) | > 100 µM (inactive) | > 100 µM (inactive) | > 100 µM (inactive) | > 100 µM (inactive) | > 100 µM (inactive) | > 100 µM (inactive) |
| Cc1cccc(C)c1NC(=S)NC=C(C(N)=O)C(N)=O | > 100 µM (inactive) | > 100 µM (inactive) | > 100 µM (inactive) | > 100 µM (inactive) | > 100 µM (inactive) |  | > 100 µM (inactive) | > 100 µM (inactive) | > 100 µM (inactive) | > 100 µM (inactive) | > 100 µM (inactive) | > 100 µM (inactive) | > 100 µM (inactive) | > 100 µM (inactive) | > 100 µM (inactive) | > 100 µM (inactive) | > 100 µM (inactive) | > 100 µM (inactive) | > 100 µM (inactive) |
| Cc1c(C)c(C)c(-n2[nH]c(=O)n(C)c2=O)c(C)c1C | > 100 µM (inactive) | > 100 µM (inactive) | > 100 µM (inactive) | > 100 µM (inactive) | > 100 µM (inactive) |  | 52.5 µM (inactive) | > 100 µM (inactive) | > 100 µM (inactive) | > 100 µM (inactive) | > 100 µM (inactive) | > 100 µM (inactive) | > 100 µM (inactive) | > 100 µM (inactive) | > 100 µM (inactive) | > 100 µM (inactive) | > 100 µM (inactive) | > 100 µM (inactive) | > 100 µM (inactive) |
| O=[N+]([O-])c1ccc2nc3n(c2c1)C(c1c(F)cccc1F)SC3 (stereo unspecified) |  | > 100 µM (inactive) | > 100 µM (inactive) | > 100 µM (inactive) | > 100 µM (inactive) | > 100 µM (inactive) |  | > 10 µM (inactive) | > 100 µM (inactive) | > 100 µM (inactive) | > 100 µM (inactive) | > 10 µM (inactive) | > 100 µM (inactive) | > 100 µM (inactive) | > 100 µM (inactive) | > 100 µM (inactive) | > 100 µM (inactive) |  |  |
| COc1c2cc(C(C)(C)C)cc1CSCc1cc(C(C)(C)C)cc(c1OC)CCCCC2 |  | 15.1 µM (inactive) | > 50 µM (inactive) | 27.4 µM (inactive) | 26.5 µM (inactive) | 29 µM (inactive) | 20.7 µM (inactive) | 37.7 µM (inactive) | > 50 µM (inactive) |  | 29.6 µM (inactive) | > 50 µM (inactive) | > 50 µM (inactive) | > 50 µM (inactive) | 31.8 µM (inactive) | 31.8 µM (inactive) | > 50 µM (inactive) | 25.1 µM (inactive) | 29.7 µM (inactive) |
| CC(=O)O[C@H]1C(=O)[C@@]2(C)[C@H]([C@H](OC(=O)c3ccccc3)[C@]3(O)C[C@H](OC(=O)[C@H](O)[C@@H](NC(=O)C(C)(C)C)c4ccccc4)C(C)=C1C3(C)C)[C@]1(OC(C)=O)CO[C@@H]1C[C@@H]2O | 0.535 µM (active) |  | 0.0485 µM (active) | 0.0322 µM (active) | 0.105 µM (active) | 0.165 µM (active) | 0.395 µM (active) | 0.0809 µM (active) | 0.0414 µM (active) | 1.87 µM (inactive) | 0.0454 µM (active) | 0.0516 µM (active) | > 10 µM (inactive) | 0.324 µM (active) | 0.106 µM (active) | 3.32 µM (inactive) | 0.022 µM (active) | 0.0736 µM (active) | 0.0485 µM (active) |
| Cc1nnc2n(c1=O)CCCN2C | > 100 µM (inactive) | > 100 µM (inactive) | > 100 µM (inactive) | > 100 µM (inactive) | > 100 µM (inactive) | > 100 µM (inactive) | > 100 µM (inactive) | > 100 µM (inactive) | > 100 µM (inactive) | > 100 µM (inactive) | > 100 µM (inactive) | > 100 µM (inactive) |  | > 100 µM (inactive) | > 100 µM (inactive) | > 100 µM (inactive) | > 100 µM (inactive) | > 100 µM (inactive) | > 100 µM (inactive) |
| Oc1ccc2c(c1)OCC1c3ccccc3OC21 (stereo unspecified) | > 100 µM (inactive) | 59 µM (inactive) | 47.5 µM (inactive) | 91.2 µM (inactive) | > 100 µM (inactive) |  | 52.8 µM (inactive) |  | 37.9 µM (inactive) | 27.9 µM (inactive) | 19.6 µM (inactive) | 41.2 µM (inactive) | 37.8 µM (inactive) | > 100 µM (inactive) | > 100 µM (inactive) | 39.8 µM (inactive) | 35.6 µM (inactive) | 60.5 µM (inactive) | 61.5 µM (inactive) |
| CCOC1CCN(C(=O)c2ccccc2)O1 (stereo unspecified) |  | > 10 µM (inactive) | > 10 µM (inactive) | > 10 µM (inactive) | > 10 µM (inactive) | > 10 µM (inactive) | > 10 µM (inactive) | > 10 µM (inactive) | > 10 µM (inactive) | > 10 µM (inactive) | > 10 µM (inactive) | > 10 µM (inactive) | > 10 µM (inactive) | > 10 µM (inactive) | > 10 µM (inactive) | > 10 µM (inactive) | > 10 µM (inactive) | > 10 µM (inactive) |  |
| COc1ccc(CN=C(N)N)c2ccccc12 |  | 42.9 µM (inactive) | 24.1 µM (inactive) | 24.6 µM (inactive) | 22.3 µM (inactive) | 17.1 µM (inactive) | 23.5 µM (inactive) | 43.1 µM (inactive) | 15.8 µM (inactive) | 21.1 µM (inactive) | 48.3 µM (inactive) |  | > 100 µM (inactive) | 12.7 µM (inactive) | 57.7 µM (inactive) | 35.6 µM (inactive) | 38.5 µM (inactive) | 35.1 µM (inactive) | 39.4 µM (inactive) |
| c1csc(-c2cc(-c3cccs3)c(-c3ccsc3)s2)c1 |  |  | > 100 µM (inactive) | > 100 µM (inactive) | > 100 µM (inactive) | > 100 µM (inactive) | > 100 µM (inactive) | > 100 µM (inactive) | > 100 µM (inactive) | > 100 µM (inactive) | > 100 µM (inactive) | > 100 µM (inactive) | > 100 µM (inactive) | > 100 µM (inactive) | > 100 µM (inactive) | > 100 µM (inactive) | > 100 µM (inactive) | > 100 µM (inactive) | > 100 µM (inactive) |
| CC1=NN(c2cccc(Cl)c2)C2(SCC(=O)N2c2nc3ccccc3s2)/C1=C\c1cccs1 (stereo unspecified) | 22.2 µM (inactive) | 24.8 µM (inactive) | 22.5 µM (inactive) | 20.6 µM (inactive) | 29.4 µM (inactive) |  | 22.4 µM (inactive) | 33.8 µM (inactive) | 21.6 µM (inactive) | 14.6 µM (inactive) | 11.4 µM (inactive) | 4.58 µM (inactive) | 21.9 µM (inactive) | 19.5 µM (inactive) | 46.5 µM (inactive) | 27.9 µM (inactive) | 21.1 µM (inactive) | 18.8 µM (inactive) |  |
